Test system: diarrhea-predominant IBS subjects
Assay: 3007 Study: open-label 52-week safety study, adverse events and withdrawals
Settings: Placebo/Cilansetron 2 mg

Compound: Cc1nccn1C[C@H]1CCc2c(c3cccc4c3n2CCC4)C1=O [cilansetron, (R)-(−)-4,5,6,8,9,10-hexahydro-10-[(2-methyl-1H-imidazol-1-yl)methyl]-11H-pyrido-[3,2,1-jk]-carbazol-11-one]
- TEAE: Eructation: 0 n (%)
- TEAE: Eye Injuries NEC: 0 n (%)
- TEAE: Faecal Abnormality NOS: 1 (<1%) n (%)
- TEAE: Faecal Impaction: 1 (<1%) n (%)
- TEAE: Faecal Incontinence: 3 (1%) n (%)
- TEAE: Faecal Occult Blood Positive: 8 (3%) n (%)
- TEAE: Faeces Abnormal: 7 (3%) n (%)
- TEAE: Faeces Hard: 5 (2%) n (%)
- TEAE: Fibromyalgia: 0 n (%)
- TEAE: Flatulence: 10 (4%) n (%)
- TEAE: Flatulence, Bloating and Distension: 13 (5%) n (%)
- TEAE: Food Poisoning NOS: 2 (<1%) n (%)
- TEAE: Foot Fracture: 1 (<1%) n (%)
- TEAE: Fractures and Dislocations NEC: 0 n (%)
- TEAE: Frequent Bowel Movements: 0 n (%)
- TEAE: Fungal Infection NOS: 1 (<1%) n (%)
- TEAE: Fungal Infections NEC: 4 (1%) n (%)
- TEAE: Gamma-Glutamyltransferase Increased: 3 (1%) n (%)
- TEAE: Gastric Irritation: 0 n (%)
- TEAE: Gastritis (Excl Infective): 0 n (%)
- TEAE: Gastritis NOS: 0 n (%)
- TEAE: Gastroenteritis NOS: 5 (2%) n (%)
- TEAE: Gastroenteritis Viral NOS: 6 (2%) n (%)
- TEAE: Gastrointestinal Atonic and Hypomotility Disorders NEC: 63 (23%) n (%)
- TEAE: Gastrointestinal Disorders: 134 (48%) n (%)
- TEAE: Gastrointestinal Disorders NEC: 2 (<1%) n (%)
- TEAE: Gastrointestinal Dyskinetic Disorders: 2 (<1%) n (%)
- TEAE: Gastrointestinal Histopathology Procedures: 12 (4%) n (%)
- TEAE: Gastrointestinal Infections - Pathogen Class Unspecified: 5 (2%) n (%)
- TEAE: Gastrointestinal Inflammatory Disorders NEC: 1 (<1%) n (%)
- TEAE: Gastrointestinal Motility Disorder NOS: 1 (<1%) n (%)
- TEAE: Gastrointestinal Mucosal Dystrophies and Secretion Disorders: 0 n (%)
- TEAE: Gastrointestinal Signs and Symptoms NEC: 2 (<1%) n (%)
- TEAE: Gastrointestinal Spastic and Hypermotility Disorders: 0 n (%)
- TEAE: Gastrointestinal and Abdominal Pains (Excl Oral and Throat): 33 (12%) n (%)
- TEAE: Gingival Abscess: 0 n (%)
- TEAE: Gingival Atrophy: 0 n (%)
- TEAE: Gingival Disorders NEC: 2 (<1%) n (%)
- TEAE: Gingival Pain: 0 n (%)
- TEAE: Gingival Pains: 0 n (%)
- TEAE: Gingivitis: 2 (<1%) n (%)
- TEAE: Gingivitis Infection NOS: 0 n (%)
- TEAE: Glucose Urine Present: 0 n (%)
- TEAE: Groin Pain: 0 n (%)
- TEAE: Haematocrit Decreased: 0 n (%)
- TEAE: Haemoglobin Decreased: 0 n (%)
- TEAE: Haemorrhoidal Haemorrhage: 2 (<1%) n (%)
- TEAE: Haemorrhoids: 7 (3%) n (%)
- TEAE: Haemorrhoids Aggravated: 1 (<1%) n (%)
- TEAE: Haemorrhoids and Gastrointestinal Varices (Excl Oesophageal): 9 (3%) n (%)
- TEAE: Halitosis: 0 n (%)
- TEAE: Headache NOS: 12 (4%) n (%)
- TEAE: Headache NOS Aggravated: 2 (<1%) n (%)
- TEAE: Headaches NEC: 14 (5%) n (%)
- TEAE: Heart Rate Increased: 1 (<1%) n (%)
- TEAE: Heart Rate and Pulse Investigations: 1 (<1%) n (%)
- TEAE: Heat Exhaustion: 0 n (%)
- TEAE: Heat Injuries (Excl Thermal Burns): 0 n (%)
- TEAE: Helicobacter Pylori Antibody Positive: 0 n (%)
- TEAE: Herpes Simplex: 1 (<1%) n (%)
- TEAE: Herpes Simplex Aggravated: 0 n (%)
- TEAE: Herpes Viral Infections: 2 (<1%) n (%)
- TEAE: Herpes Zoster: 1 (<1%) n (%)
- TEAE: Hiatus Hernia: 0 n (%)
- TEAE: Hyperreflexia: 0 n (%)
- TEAE: Hypoaesthesia: 1 (<1%) n (%)
- TEAE: Infected Varicose Vein: 0 n (%)
- TEAE: Infections NEC: 1 (<1%) n (%)
- TEAE: Infections and Infestations: 67 (24%) n (%)
- TEAE: Influenza: 7 (3%) n (%)
- TEAE: Influenza Viral Infections: 7 (3%) n (%)
- TEAE: Inguinal Hernia NOS: 1 (<1%) n (%)
- TEAE: Inguinal Hernias: 1 (<1%) n (%)
- TEAE: Injury, Poisoning and Procedural Complications: 21 (8%) n (%)
- TEAE: Intervertebral Disc Degeneration NOS: 0 n (%)
- TEAE: Intervertebral Disc Disorder NOS: 0 n (%)
- TEAE: Intervertebral Disc Disorders NEC: 0 n (%)
- TEAE: Intervertebral Disc Herniation: 0 n (%)
- TEAE: Intestinal Haemorrhages: 4 (1%) n (%)
- TEAE: Intraocular Pressure Increased: 1 (<1%) n (%)
- TEAE: Investigations: 49 (18%) n (%)
- TEAE: Irritable Bowel Syndrome: 0 n (%)
- TEAE: Irritable Bowel Syndrome Aggravated: 0 n (%)
- TEAE: Joint Related Disorders NEC: 1 (<1%) n (%)
- TEAE: Joint Related Signs and Symptoms: 3 (1%) n (%)
- TEAE: Joint Sprain: 3 (1%) n (%)
- TEAE: Joint Swelling: 0 n (%)
- TEAE: Kidney Infection NOS: 1 (<1%) n (%)
- TEAE: Laceration: 3 (1%) n (%)
- TEAE: Ligament Sprain: 1 (<1%) n (%)
- TEAE: Limb Discomfort NOS: 1 (<1%) n (%)
- TEAE: Limb Injuries NEC (Incl Traumatic Amputation): 3 (1%) n (%)
- TEAE: Limb Injury NOS: 0 n (%)
- TEAE: Lip and Palate Disorders NEC: 1 (<1%) n (%)
- TEAE: Liver Function Analyses: 11 (4%) n (%)
- TEAE: Liver Function Tests NOS Abnormal: 2 (<1%) n (%)
- TEAE: Localised Infection: 1 (<1%) n (%)
- TEAE: Localised Osteoarthritis: 0 n (%)
- TEAE: Loss of Consciousness: 0 n (%)
- TEAE: Lower Limb Fracture NOS: 1 (<1%) n (%)
- TEAE: Lower Limb Fractures and Dislocations: 2 (<1%) n (%)
- TEAE: Lower Respiratory Tract and Lung Infections: 7 (3%) n (%)
- TEAE: Lymphocyte Count Increased: 0 n (%)
- TEAE: Memory Loss (Excl Dementia): 0 n (%)
- TEAE: Metabolic Bone Disorders: 1 (<1%) n (%)
- TEAE: Metabolism Tests NEC: 2 (<1%) n (%)
- TEAE: Migraine Headaches: 0 n (%)
- TEAE: Migraine NOS: 0 n (%)
- TEAE: Mineral and Electrolyte Analyses: 0 n (%)
- TEAE: Monoarthritis: 1 (<1%) n (%)
- TEAE: Monocyte Count Decreased: 1 (<1%) n (%)
- TEAE: Monocyte Count Increased: 0 n (%)
- TEAE: Mononeuropathies: 1 (<1%) n (%)
- TEAE: Movement Disorder NOS: 1 (<1%) n (%)
- TEAE: Muscle Cramps: 2 (<1%) n (%)
- TEAE: Muscle Infections and Inflammations: 1 (<1%) n (%)
- TEAE: Muscle Pains: 1 (<1%) n (%)
- TEAE: Muscle Related Signs and Symptoms NEC: 2 (<1%) n (%)
- TEAE: Muscle Spasms: 0 n (%)
- TEAE: Muscle Strain: 3 (1%) n (%)
- TEAE: Muscle Tone Abnormalities: 0 n (%)
- TEAE: Muscle, Tendon and Ligament Injuries: 4 (1%) n (%)
- TEAE: Musculoskeletal Chest Pain: 0 n (%)
- TEAE: Musculoskeletal and Connective Tissue Disorders: 31 (11%) n (%)
- TEAE: Musculoskeletal and Connective Tissue Signs and Symptoms NEC: 14 (5%) n (%)
- TEAE: Musculoskeletal and Soft Tissue Imaging Procedures: 1 (<1%) n (%)
- TEAE: Myalgia: 1 (<1%) n (%)
- TEAE: Myasthenia Gravis: 1 (<1%) n (%)
- TEAE: Mycoplasma Infections: 0 n (%)
- TEAE: Myeloradiculopathy: 1 (<1%) n (%)
- TEAE: Myositis: 1 (<1%) n (%)
- TEAE: Nail Fungal Infection NOS: 2 (<1%) n (%)
- TEAE: Nail Infection NOS: 0 n (%)
- TEAE: Nasopharyngitis: 10 (4%) n (%)
- TEAE: Nausea: 10 (4%) n (%)
- TEAE: Nausea and Vomiting Symptoms: 14 (5%) n (%)
- TEAE: Neck Pain: 0 n (%)
- TEAE: Nervous System Disorders: 23 (8%) n (%)
- TEAE: Neurological Signs and Symptoms NEC: 2 (<1%) n (%)
- TEAE: Neuromuscular Junction Dysfunction: 1 (<1%) n (%)
- TEAE: Neutrophil Count Decreased: 0 n (%)
- TEAE: Night Cramps: 0 n (%)
- TEAE: Nitrite Urine Present: 1 (<1%) n (%)
- TEAE: Non-Accidental Overdose: 0 n (%)
- TEAE: Non-Site Specific Injuries NEC: 6 (2%) n (%)
- TEAE: Non-Site Specific Procedural Complications: 5 (2%) n (%)
- TEAE: Ophthalmic Function Diagnostic Procedures: 1 (<1%) n (%)
- TEAE: Oral Dryness and Saliva Altered: 1 (<1%) n (%)
- TEAE: Osteoarthritis Aggravated: 0 n (%)
- TEAE: Osteoarthropathies: 0 n (%)
- TEAE: Osteopenia: 1 (<1%) n (%)
- TEAE: Osteoporosis NOS: 1 (<1%) n (%)
- TEAE: Otitis Media NOS: 1 (<1%) n (%)
- TEAE: Overdoses: 0 n (%)
- TEAE: Pain in Limb: 4 (1%) n (%)
- TEAE: Paraesthesias and Dysaesthesias: 1 (<1%) n (%)
- TEAE: Parkinson's Disease NOS: 0 n (%)
- TEAE: Parkinson's Disease and Parkinsonism: 0 n (%)
- TEAE: Periorbital Haematoma: 0 n (%)
- TEAE: Peripheral Swelling: 0 n (%)
- TEAE: Pharyngitis Streptococcal: 3 (1%) n (%)
- TEAE: Physical Examination Procedures: 1 (<1%) n (%)
- TEAE: Plantar Fasciitis: 2 (<1%) n (%)
- TEAE: Pneumonia Mycoplasmal: 0 n (%)
- TEAE: Pneumonia NOS: 1 (<1%) n (%)
- TEAE: Popliteal Bursitis: 1 (<1%) n (%)
- TEAE: Post Procedural Discomfort: 1 (<1%) n (%)
- TEAE: Post Procedural Pain: 4 (1%) n (%)
- TEAE: Proctalgia: 4 (1%) n (%)

— US20070093520A1, “Method of treatment of diarrhea-predominant irritable bowel syndrome in a subject” (priority 2005, published 2007)
